Measured values published in patent publication US8497245B2, “Trypsin-like serine protease inhibitors, their preparation and use as selective inhibitors of the clotting factors IIa and Xa” (The Medicines Company (Leipzig) GmbH, priority 2010, dated 2013).

Target: T1, Human plasma kallikrein (h PK) (Homo sapiens, UniProt P03952)
T1 construct: purchased Enzyme Research Laboratories
Assay: Inhibition of human plasma kallikrein (reference enzyme)
Assay type: biochemical
Conditions: S2302 substrate
Experimental: (§1) The inhibitory effect against the individual purified enzymes was determined in analogy to a previously disclosed method (Stürzebecher et al., J. Med. Chem., 40, 3091-3099 (1997)).
(§2) The release of p-nitroaniline (p-NA, the chromogenic product of the proteolytic activity), was determined by change in absorbance at 405 nm. The equilibrium rates were used to calculate the inhibitor/enzyme dissociation constant (Ki values) by parameter fitting in accordance with the rate equation for competitive inhibition using GraFit (version 4 from Erithacus). The results are reported as Ki values (nanomolar) in table 7 and are the average of at least three determinations.
(§3) Dissociation constants were calculated as described herein.

T1 sequence (P03952 391-638 limits assumed): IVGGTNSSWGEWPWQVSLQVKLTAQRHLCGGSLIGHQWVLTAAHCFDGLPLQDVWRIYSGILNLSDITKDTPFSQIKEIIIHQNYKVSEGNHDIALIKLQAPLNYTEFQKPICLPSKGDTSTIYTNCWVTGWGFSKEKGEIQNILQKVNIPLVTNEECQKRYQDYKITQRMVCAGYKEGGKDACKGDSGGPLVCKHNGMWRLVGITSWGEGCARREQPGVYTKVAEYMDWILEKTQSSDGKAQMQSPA
T1 sequence (P03952 20-390 partner limits assumed): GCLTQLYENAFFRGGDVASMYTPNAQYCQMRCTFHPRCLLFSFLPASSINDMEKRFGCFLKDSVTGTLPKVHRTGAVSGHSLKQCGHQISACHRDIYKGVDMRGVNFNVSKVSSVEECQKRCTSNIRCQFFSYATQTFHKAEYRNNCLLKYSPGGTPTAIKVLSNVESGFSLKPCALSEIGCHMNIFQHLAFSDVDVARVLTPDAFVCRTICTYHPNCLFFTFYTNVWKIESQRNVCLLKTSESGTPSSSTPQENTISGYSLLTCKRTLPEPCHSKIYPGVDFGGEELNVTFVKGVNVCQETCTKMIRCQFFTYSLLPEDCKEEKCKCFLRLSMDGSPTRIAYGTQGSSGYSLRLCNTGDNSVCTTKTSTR

| Ki | SMILES |
| --- | --- |
| 1.21 µM | NCc1ccc(Cl)cc1CNC(=O)[C@@H]1C[C@H](N)CN1C(=O)[C@@H](CCC(=O)N1CCOCC1)NS(=O)(=O)Cc1ccccc1 [Compound 2.24] |
| 1.02 µM | NCc1ccc(Cl)cc1CNC(=O)[C@@H]1CCCN1C(=O)[C@@H](CC(=O)N1CCNCC1)NS(=O)(=O)Cc1ccccc1 [Compound 2.19] |
| 1.76 µM | NCc1ccc(Cl)cc1CNC(=O)[C@@H]1CCCN1C(=O)[C@@H](CC(=O)Nc1ccncc1)NS(=O)(=O)Cc1ccccc1 [Compound 2.34] |

Target: T2, Human tissue-type plasminogen activator (h t-PA) (Homo sapiens, UniProt P00750)
T2 construct: purchased Boehringer Ingelheim Actilyse
T2 sequence (P00750 36-562): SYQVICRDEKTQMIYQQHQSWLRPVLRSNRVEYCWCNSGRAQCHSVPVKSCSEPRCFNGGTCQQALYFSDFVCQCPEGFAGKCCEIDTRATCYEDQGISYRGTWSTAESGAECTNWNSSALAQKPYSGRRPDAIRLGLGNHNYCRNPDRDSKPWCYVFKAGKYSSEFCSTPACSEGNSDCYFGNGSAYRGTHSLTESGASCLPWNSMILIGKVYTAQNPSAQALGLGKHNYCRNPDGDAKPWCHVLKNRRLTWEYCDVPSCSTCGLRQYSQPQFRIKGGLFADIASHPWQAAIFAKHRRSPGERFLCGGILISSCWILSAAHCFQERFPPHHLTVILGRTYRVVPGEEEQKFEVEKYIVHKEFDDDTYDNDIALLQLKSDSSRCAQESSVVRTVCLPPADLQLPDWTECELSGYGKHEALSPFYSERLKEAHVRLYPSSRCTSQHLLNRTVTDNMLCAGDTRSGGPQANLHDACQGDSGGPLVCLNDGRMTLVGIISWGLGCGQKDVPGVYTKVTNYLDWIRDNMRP
Assay: Inhibition of human tissue-type plasminogen activator (reference enzyme)
Assay type: biochemical
Conditions: Pefachrome tPA substrate; read-out: Ki h t-PA
Experimental: The equilibrium rates were used to calculate the inhibitor/enzyme dissociation constant (Ki values) by parameter fitting in accordance with the rate equation for competitive inhibition using GraFit (version 4 from Erithacus).
as §3

| Ki | SMILES |
| --- | --- |
| > 15 µM | NCc1ccc(Cl)cc1CNC(=O)[C@@H]1C[C@H](N)CN1C(=O)[C@@H](CCC(=O)N1CCOCC1)NS(=O)(=O)Cc1ccccc1 [Compound 2.24] |
| > 5 µM | NCc1ccc(Cl)cc1CNC(=O)[C@@H]1CCCN1C(=O)[C@@H](CC(=O)N1CCNCC1)NS(=O)(=O)Cc1ccccc1 [Compound 2.19] |
| > 100 µM | NCc1ccc(Cl)cc1CNC(=O)[C@@H]1CCCN1C(=O)[C@@H](CC(=O)Nc1ccncc1)NS(=O)(=O)Cc1ccccc1 [Compound 2.34] |

Target: T3, Human plasmin (h plasmin) (Homo sapiens, UniProt P00747)
T3 construct: purchased Calbiochem
T3 sequence (P00747 581-810 limits assumed): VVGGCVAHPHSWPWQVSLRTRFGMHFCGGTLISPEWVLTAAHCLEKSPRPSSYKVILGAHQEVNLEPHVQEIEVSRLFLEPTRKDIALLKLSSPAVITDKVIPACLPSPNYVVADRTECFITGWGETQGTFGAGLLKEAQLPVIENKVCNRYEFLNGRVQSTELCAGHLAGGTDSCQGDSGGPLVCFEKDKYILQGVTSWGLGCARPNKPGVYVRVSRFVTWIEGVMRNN
T3 sequence (P00747 97-580 partner limits assumed): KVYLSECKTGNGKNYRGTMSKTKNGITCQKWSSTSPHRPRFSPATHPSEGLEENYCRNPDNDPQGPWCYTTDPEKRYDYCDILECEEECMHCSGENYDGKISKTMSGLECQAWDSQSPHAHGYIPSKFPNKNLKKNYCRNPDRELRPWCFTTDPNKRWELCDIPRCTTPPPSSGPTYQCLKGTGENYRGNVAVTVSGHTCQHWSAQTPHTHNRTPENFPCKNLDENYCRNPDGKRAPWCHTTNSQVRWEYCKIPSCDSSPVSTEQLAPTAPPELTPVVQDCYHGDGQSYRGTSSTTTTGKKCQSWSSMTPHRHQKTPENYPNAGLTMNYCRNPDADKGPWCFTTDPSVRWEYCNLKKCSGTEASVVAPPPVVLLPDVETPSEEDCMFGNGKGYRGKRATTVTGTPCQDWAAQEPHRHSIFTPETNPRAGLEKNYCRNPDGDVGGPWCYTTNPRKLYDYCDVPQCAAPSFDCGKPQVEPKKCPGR
Assay: Inhibition of human plasmin (reference enzyme)
Assay type: biochemical
Conditions: Chromozym PL substrate
Experimental: as §1, §2, §3

| Ki | SMILES |
| --- | --- |
| > 15 µM | NCc1ccc(Cl)cc1CNC(=O)[C@@H]1C[C@H](N)CN1C(=O)[C@@H](CCC(=O)N1CCOCC1)NS(=O)(=O)Cc1ccccc1 [Compound 2.24] |
| > 4.6 µM | NCc1ccc(Cl)cc1CNC(=O)[C@@H]1CCCN1C(=O)[C@@H](CC(=O)N1CCNCC1)NS(=O)(=O)Cc1ccccc1 [Compound 2.19] |
| > 20 µM | NCc1ccc(Cl)cc1CNC(=O)[C@@H]1CCCN1C(=O)[C@@H](CC(=O)Nc1ccncc1)NS(=O)(=O)Cc1ccccc1 [Compound 2.34] |

Target: T4, human factor IIa (human alpha-thrombin) (Homo sapiens, UniProt P00734)
T4 construct: human alpha-thrombin from Enzyme Research Laboratories; purchased Enzyme Research Laboratories
Assay: Inhibition constants for human factor IIa, chromogenic substrate assay
Assay type: biochemical
Conditions: 25° C., Pefachrome tPA substrate, average of at least three determinations; read-out: Ki h FIIa
Experimental: as §1
(§4) 200 μL of TBS (0.05 M trishydroxymethylaminomethane; 0.154 M NaCl, 2% ethanol, pH 8.0)
as §2

| Ki | SMILES |
| --- | --- |
| 0.00128 µM | NCc1ccc(Cl)cc1CNC(=O)[C@@H]1C[C@H](N)CN1C(=O)[C@@H](CCC(=O)N1CCOCC1)NS(=O)(=O)Cc1ccccc1 [Compound 2.24] |
| 0.0024 µM | NCc1ccc(Cl)cc1CNC(=O)[C@@H]1CCCN1C(=O)[C@@H](CC(=O)N1CCNCC1)NS(=O)(=O)Cc1ccccc1 [Compound 2.19] |
| 0.0017 µM | NCc1ccc(Cl)cc1CNC(=O)[C@@H]1CCCN1C(=O)[C@@H](CC(=O)Nc1ccncc1)NS(=O)(=O)Cc1ccccc1 [Compound 2.34] |

Target: T5, Human Activated Protein C (h aPC) (Homo sapiens, UniProt P04070)
T5 construct: purchased Enzyme Research Laboratories
T5 sequence (P04070 212-450 limits assumed): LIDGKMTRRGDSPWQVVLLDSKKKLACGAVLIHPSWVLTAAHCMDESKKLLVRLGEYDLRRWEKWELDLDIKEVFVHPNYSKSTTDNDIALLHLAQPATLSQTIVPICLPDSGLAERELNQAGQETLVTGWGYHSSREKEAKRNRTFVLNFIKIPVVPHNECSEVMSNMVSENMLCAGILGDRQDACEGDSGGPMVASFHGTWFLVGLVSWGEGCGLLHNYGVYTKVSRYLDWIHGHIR
T5 sequence (P04070 43-197 partner limits assumed): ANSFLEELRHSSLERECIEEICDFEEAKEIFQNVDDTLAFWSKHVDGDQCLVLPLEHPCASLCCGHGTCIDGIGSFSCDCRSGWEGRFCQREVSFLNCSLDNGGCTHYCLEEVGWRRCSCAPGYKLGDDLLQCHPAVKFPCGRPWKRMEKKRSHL
Assay: Inhibition of human activated protein C (reference enzyme)
Assay type: biochemical
Conditions: Pefachrome PCa substrate
Experimental: as §1, §2, §3

| Ki | SMILES |
| --- | --- |
| > 200 µM | NCc1ccc(Cl)cc1CNC(=O)[C@@H]1C[C@H](N)CN1C(=O)[C@@H](CCC(=O)N1CCOCC1)NS(=O)(=O)Cc1ccccc1 [Compound 2.24] |
| > 30 µM | NCc1ccc(Cl)cc1CNC(=O)[C@@H]1CCCN1C(=O)[C@@H](CC(=O)N1CCNCC1)NS(=O)(=O)Cc1ccccc1 [Compound 2.19] |
| > 100 µM | NCc1ccc(Cl)cc1CNC(=O)[C@@H]1CCCN1C(=O)[C@@H](CC(=O)Nc1ccncc1)NS(=O)(=O)Cc1ccccc1 [Compound 2.34] |

Target: T6, human Factor Xa (Homo sapiens, UniProt P00742)
T6 construct: human Factor Xa from Enzyme Research Laboratories; purchased Enzyme Research Laboratories
T6 sequence (P00742 235-488 limits assumed): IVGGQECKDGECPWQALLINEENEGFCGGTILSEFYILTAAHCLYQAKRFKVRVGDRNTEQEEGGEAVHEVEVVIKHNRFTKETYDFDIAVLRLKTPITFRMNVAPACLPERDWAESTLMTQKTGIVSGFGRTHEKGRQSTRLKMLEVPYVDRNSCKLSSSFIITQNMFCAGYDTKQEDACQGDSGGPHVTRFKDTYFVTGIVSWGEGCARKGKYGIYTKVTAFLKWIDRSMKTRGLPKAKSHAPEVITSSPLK
T6 sequence (P00742 41-179 partner limits assumed): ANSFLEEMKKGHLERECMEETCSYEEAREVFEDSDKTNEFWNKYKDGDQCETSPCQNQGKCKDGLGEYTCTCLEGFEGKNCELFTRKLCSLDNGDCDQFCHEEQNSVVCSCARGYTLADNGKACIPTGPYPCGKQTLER
Assay: Inhibition constants for human factor Xa, chromogenic substrate assay
Assay type: biochemical
Conditions: 25° C., Pefachrome FXa substrate, average of at least three determinations; read-out: Ki h FXa
Experimental: as §1, §4, §2

| Ki | SMILES |
| --- | --- |
| 0.00019 µM | NCc1ccc(Cl)cc1CNC(=O)[C@@H]1C[C@H](N)CN1C(=O)[C@@H](CCC(=O)N1CCOCC1)NS(=O)(=O)Cc1ccccc1 [Compound 2.24] |
| 0.0015 µM | NCc1ccc(Cl)cc1CNC(=O)[C@@H]1CCCN1C(=O)[C@@H](CC(=O)N1CCNCC1)NS(=O)(=O)Cc1ccccc1 [Compound 2.19] |
| 0.021 µM | NCc1ccc(Cl)cc1CNC(=O)[C@@H]1CCCN1C(=O)[C@@H](CC(=O)Nc1ccncc1)NS(=O)(=O)Cc1ccccc1 [Compound 2.34] |

Target: T7, Subcomponent "r" of Human Complement Component 1 (h C1r) (Homo sapiens, UniProt P00736)
T7 construct: purchased Calbiochem
T7 sequence (P00736 464-705 limits assumed): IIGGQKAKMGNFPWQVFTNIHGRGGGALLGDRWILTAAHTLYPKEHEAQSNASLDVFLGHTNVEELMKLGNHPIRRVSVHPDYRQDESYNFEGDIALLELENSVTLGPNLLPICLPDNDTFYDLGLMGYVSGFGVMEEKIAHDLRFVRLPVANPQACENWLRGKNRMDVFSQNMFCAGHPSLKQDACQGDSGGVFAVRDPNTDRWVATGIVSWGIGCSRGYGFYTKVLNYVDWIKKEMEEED
T7 sequence (P00736 18-463 partner limits assumed): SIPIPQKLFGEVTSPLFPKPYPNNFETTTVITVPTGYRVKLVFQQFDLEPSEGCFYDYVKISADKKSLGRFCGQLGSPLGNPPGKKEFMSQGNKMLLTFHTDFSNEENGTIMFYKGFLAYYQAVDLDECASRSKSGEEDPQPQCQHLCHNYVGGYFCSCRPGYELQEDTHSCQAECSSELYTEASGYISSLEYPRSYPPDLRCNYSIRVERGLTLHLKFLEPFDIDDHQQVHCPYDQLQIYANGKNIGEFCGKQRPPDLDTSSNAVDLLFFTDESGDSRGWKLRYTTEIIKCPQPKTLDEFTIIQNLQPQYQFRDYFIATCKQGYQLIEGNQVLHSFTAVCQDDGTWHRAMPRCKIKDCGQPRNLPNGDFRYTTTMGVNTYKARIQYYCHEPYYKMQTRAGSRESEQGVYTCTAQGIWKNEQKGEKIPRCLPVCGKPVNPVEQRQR
Assay: Inhibition of human C1r (reference enzyme)
Assay type: biochemical
Conditions: S-2314 substrate; read-out: Ki h Clr
Experimental: as §1, §2, §3

| Ki | SMILES |
| --- | --- |
| > 50 µM | NCc1ccc(Cl)cc1CNC(=O)[C@@H]1C[C@H](N)CN1C(=O)[C@@H](CCC(=O)N1CCOCC1)NS(=O)(=O)Cc1ccccc1 [Compound 2.24] |
| > 50 µM | NCc1ccc(Cl)cc1CNC(=O)[C@@H]1CCCN1C(=O)[C@@H](CC(=O)N1CCNCC1)NS(=O)(=O)Cc1ccccc1 [Compound 2.19] |
| > 100 µM | NCc1ccc(Cl)cc1CNC(=O)[C@@H]1CCCN1C(=O)[C@@H](CC(=O)Nc1ccncc1)NS(=O)(=O)Cc1ccccc1 [Compound 2.34] |

Target: T8, Subcomponent "s" of Human Complement Component 1 (h C1s) (Homo sapiens, UniProt P09871)
T8 construct: purchased Calbiochem
T8 sequence (P09871 438-688 limits assumed): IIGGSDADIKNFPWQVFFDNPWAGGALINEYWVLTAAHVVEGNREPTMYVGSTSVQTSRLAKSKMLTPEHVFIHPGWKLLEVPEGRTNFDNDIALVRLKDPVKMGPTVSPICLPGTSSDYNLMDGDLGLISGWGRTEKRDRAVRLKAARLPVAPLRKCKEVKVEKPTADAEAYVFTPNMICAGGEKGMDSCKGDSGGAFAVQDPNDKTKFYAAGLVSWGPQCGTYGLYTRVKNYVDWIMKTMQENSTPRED
T8 sequence (P09871 16-437 partner limits assumed): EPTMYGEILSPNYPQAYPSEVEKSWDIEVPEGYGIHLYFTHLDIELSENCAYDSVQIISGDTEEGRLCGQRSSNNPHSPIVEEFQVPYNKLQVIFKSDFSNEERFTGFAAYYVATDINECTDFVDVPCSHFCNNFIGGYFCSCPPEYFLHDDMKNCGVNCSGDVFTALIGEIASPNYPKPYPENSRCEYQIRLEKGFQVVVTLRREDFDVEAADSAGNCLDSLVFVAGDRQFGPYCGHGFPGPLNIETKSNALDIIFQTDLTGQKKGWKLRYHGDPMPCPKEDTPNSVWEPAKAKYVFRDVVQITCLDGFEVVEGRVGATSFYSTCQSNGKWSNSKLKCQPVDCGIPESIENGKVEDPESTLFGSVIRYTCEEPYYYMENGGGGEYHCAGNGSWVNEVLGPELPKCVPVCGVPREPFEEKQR
Assay: Inhibition of human C1s (reference enzyme)
Assay type: biochemical
Conditions: S-2314 substrate; read-out: Ki h Cls
Experimental: as §1, §2, §3

| Ki | SMILES |
| --- | --- |
| > 60 µM | NCc1ccc(Cl)cc1CNC(=O)[C@@H]1C[C@H](N)CN1C(=O)[C@@H](CCC(=O)N1CCOCC1)NS(=O)(=O)Cc1ccccc1 [Compound 2.24] |
| > 100 µM | NCc1ccc(Cl)cc1CNC(=O)[C@@H]1CCCN1C(=O)[C@@H](CC(=O)N1CCNCC1)NS(=O)(=O)Cc1ccccc1 [Compound 2.19] |
| > 100 µM | NCc1ccc(Cl)cc1CNC(=O)[C@@H]1CCCN1C(=O)[C@@H](CC(=O)Nc1ccncc1)NS(=O)(=O)Cc1ccccc1 [Compound 2.34] |

Target: T9, Human urokinase type plasminogen activator (h u-PA) (Homo sapiens, UniProt P00749)
T9 construct: purchased MEDAC GmbH Urokinase HS medac
Assay: Inhibition of human urokinase type plasminogen activator (reference enzyme)
Assay type: biochemical
Conditions: H-Glu-Gly-Arg-pNA substrate
Experimental: as §1, §2, §3

| Ki | SMILES |
| --- | --- |
| > 100 µM | NCc1ccc(Cl)cc1CNC(=O)[C@@H]1C[C@H](N)CN1C(=O)[C@@H](CCC(=O)N1CCOCC1)NS(=O)(=O)Cc1ccccc1 [Compound 2.24] |
| > 15 µM | NCc1ccc(Cl)cc1CNC(=O)[C@@H]1CCCN1C(=O)[C@@H](CC(=O)N1CCNCC1)NS(=O)(=O)Cc1ccccc1 [Compound 2.19] |
| > 100 µM | NCc1ccc(Cl)cc1CNC(=O)[C@@H]1CCCN1C(=O)[C@@H](CC(=O)Nc1ccncc1)NS(=O)(=O)Cc1ccccc1 [Compound 2.34] |

Target: T10, Human urinary kallikrein (h uKK) (Homo sapiens, UniProt P06870)
T10 construct: purchased Lee Biosolutions
T10 sequence (P06870 25-262): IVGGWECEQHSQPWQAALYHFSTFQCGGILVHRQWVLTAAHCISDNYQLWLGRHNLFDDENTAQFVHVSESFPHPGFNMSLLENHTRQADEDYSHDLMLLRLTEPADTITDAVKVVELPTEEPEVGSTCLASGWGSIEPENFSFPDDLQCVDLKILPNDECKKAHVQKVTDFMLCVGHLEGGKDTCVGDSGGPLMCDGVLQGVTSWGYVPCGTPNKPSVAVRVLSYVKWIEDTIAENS
Assay: Inhibition of human urinary kallikrein (reference enzyme)
Assay type: biochemical
Conditions: S-2266 substrate
Experimental: as §1, §2, §3

| Ki | SMILES |
| --- | --- |
| > 50 µM | NCc1ccc(Cl)cc1CNC(=O)[C@@H]1C[C@H](N)CN1C(=O)[C@@H](CCC(=O)N1CCOCC1)NS(=O)(=O)Cc1ccccc1 [Compound 2.24] |
| > 5 µM | NCc1ccc(Cl)cc1CNC(=O)[C@@H]1CCCN1C(=O)[C@@H](CC(=O)N1CCNCC1)NS(=O)(=O)Cc1ccccc1 [Compound 2.19] |
| > 100 µM | NCc1ccc(Cl)cc1CNC(=O)[C@@H]1CCCN1C(=O)[C@@H](CC(=O)Nc1ccncc1)NS(=O)(=O)Cc1ccccc1 [Compound 2.34] |
